This note sets out measurements from article PMC9926234, “Iterative computational design and crystallographic screening identifies potent inhibitors targeting the Nsp3 macrodomain of SARS-CoV-2” (Proceedings of the National Academy of Sciences of the …, 2023).

Where two headings read alike, the source gives them in different places.

The target in this test is SARS-CoV-2 NSP3 Mac1 (Severe acute respiratory syndrome coronavirus 2, UniProt P0DTD1). It is filed as binding. As to conditions: for Spearman est (compound concentration vs apparent Tm): DSF dose responsiveness, 1 µM nsp3 mac1, adj p given. Further details: contains a conserved macrodomain enzyme (Mac1). Here is the method:
DSF and associated compound handling was performed as described ([12]), with 5 µM dye “Fluorescent Yellow” (Jacquard iDye Cat #JID1405) used in place of SYPRO Orange. Compounds were tested in triplicate, at seven concentrations in two-fold serial dilutions, at a top concentration of either 1,000 or 100 μM. To minimize experimental noise arising from plate location-based effects on Tma, all concentrations and replicates for each compound were tested within a single region of the microtiter plates, including a DMSO-only control from which ΔTmas were calculated for that compound. […] For each compound, to determine statistical significance of the dose responsive thermal shift, the Spearman’s coefficient was calculated between compound concentration and ΔTma.

Setting [1] is: maximal thermal upshift vs DMSO control.

Take `O=C(Nc1nc2ccccc2c(=O)[nH]1)c1cccnc1` [Z3628]: under setting [1], the “DSF max dTma” value turned out to be 0.49 °C.
For `CN(c1cc(NC2CC2)ncn1)C1CCCN(c2cccnn2)C1` (stereo not drawn) [Z3167], under setting [1], the “DSF max dTma” value is 0.44 °C.
`O=C(NCc1nc2ccccc2c(=O)[nH]1)Nc1cccnc1` [Z4718398598]: the “Spearman est (compound concentration vs apparent Tm)” value is recorded as −0.41.
As for `CS(=O)(=O)C1CCCCN(c2ncnc3[nH]c4ccccc4c23)C1` (stereo not drawn) [Z8648], the “DSF max dTma” value under setting [1] was found to be 0.24 °C.
Consider `NC(=O)c1ccc(CCSc2cccc(F)c2)cc1` [Z8885], for which the “DSF max dTma” value under setting [1] was 0.09 °C.
Consider `O=C(c1ncnc2[nH]ccc12)N1CC(n2ccnn2)C1` [ZINC001335091110], for which the “Spearman est (compound concentration vs apparent Tm)” value was −0.36. Besides, under “maximal thermal upshift”, the “DSF max dTma” value is listed as 0.04 ˚C.
For `CC(C(=O)N1CCCC1c1nc(C(N)=O)no1)c1cccc(F)c1` (stereo not drawn) [Z4135], the “DSF max dTma” value under setting [1] was found to be 0.15 °C.
In the case of `c1ccc(-c2n[nH]c(Cc3noc([C@@H]4CCCO4)n3)n2)cc1` [ZINC000273900063], the “Spearman est (compound concentration vs apparent Tm)” value is on record as −0.02. Further, the “DSF max dTma” value (maximal thermal upshift) is 0.03 ˚C.
Turning to `Nc1nc(N)c2ncn(Cc3csc(Cl)n3)c2n1` [Z4718398572], the “Spearman est (compound concentration vs apparent Tm)” value was found to be 0.89.
As to `O=c1[nH]nc(C2CCCN(c3ncnc4[nH]c(Cl)cc34)C2)o1` (stereo not drawn) [Z8387], the “DSF max dTma” value under setting [1] worked out at 1.01 °C.
Regarding `CN(Cc1cccc(O)c1)C(=O)Cc1ccncc1` [ZINC000542791186], the “Spearman est (compound concentration vs apparent Tm)” value is 0.23.
Turning to `CN(Cc1nnc2c(=O)[nH]ccn12)c1nccc(C(F)(F)F)n1` [ZINC000882897665], the “Spearman est (compound concentration vs apparent Tm)” value was found to be 0.38.
As for `Nc1ncnc2c1ncn2CCCc1ccsc1` [Z5972], the “DSF max dTma” value under setting [1] was found to be 0.51 °C.
For `Cc1oc(-c2cccs2)nc1Cc1nc(-c2cncnc2N)no1` [ZINC000350813789], the “Spearman est (compound concentration vs apparent Tm)” value turned out to be 0.74.
For the molecule `CC1c2ccc(F)cc2CCN1C(=O)c1cccc(O)c1` (stereo not drawn) [Z5167], the “DSF max dTma” value under setting [1] was 0 °C.
On to `O=C(Nc1nc2ccccc2c(=O)[nH]1)c1cccnc1` [Z1082933628], for which the “Spearman est (compound concentration vs apparent Tm)” value was 0.37.
Take `CN(c1cc(NC2CC2)ncn1)C1CCCN(c2cccnn2)C1` (stereo not drawn) [ZINC000413143167]: the “Spearman est (compound concentration vs apparent Tm)” value is recorded as −0.41.
With `O=C(c1ncnc2[nH]ccc12)N1CC(n2cncn2)C1` [ZINC001327823432], the “Spearman est (compound concentration vs apparent Tm)” value stood at 0.54. In addition, the “DSF max dTma” value (maximal thermal upshift) is 0.66 ˚C.
